Experimental data as given in US20260130856A1, “LIPOSOME COMPOSITIONS FOR DELIVERY OF COMPOUNDS AND METHODS THEREOF” (NanoTech Pharma Inc., priority 2022, published 2026).

Experiment: In vivo pharmacokinetics study of carfilzomib formulations, plasma carfilzomib by LC-MS
Details: BALB/c nude, mouse, mice, intravenous via tail vein, 5.0 mg/kg
Method: The carfilzomib-loaded liposome was prepared based on the description in Example 17. In-vivo pharmacokinetics study was carried out in BALB/c nude mice. Carfilzomib drug solution (free drug) and liposomal carfilzomib were administered intravenously via the tail vein into the mice and the plasma concentration of carfilzomib of both formulations were monitored over time by LC-MS. The injection dose of both drug formulations was 5.0 mg/kg. After intravenous administration, blood was collected at pre-determined time points (3 mice per time point) and was placed into EDTA coated micro containers. The samples were then centrifuged to separate plasma. Plasma levels of carfilzomib were quantified by using LC-MS. PK parameters were then calculated from measured drug plasma concentrations over time.

AUC(0-t): 486 ng·h/mL
clearance: 170 mL/min/kg
half-life: 19.2 min
Vd (read-out: Vdss): 5.36 L/kg
SMILES: CC(C)C[C@H](NC(=O)[C@H](CCc1ccccc1)NC(=O)CN1CCOCC1)C(=O)N[C@@H](Cc1ccccc1)C(=O)N[C@@H](CC(C)C)C(=O)[C@@]1(C)CO1 [Free carfilzomib, carfilzomib]
